Source: patent US7709010B2, “Papillomavirus vaccine compositions” (Merck Sharp & Dohme Corp., priority 2007, dated 2010)

Columns and labels:
[1] = tested on: microorganisms (e.g., bacteria and fungi); assay: Anti-microbial effectiveness (AME) test (USP, EP-B, EP-A criteria); assay type: cell-based; conditions: initial screening, octavalent HPV formulation with MAA, stored one week at 2-8° C. before test
Method: The effectiveness of various preservatives in candidate HPV vaccine formulations was evaluated using an antimicrobial test (anti-microbial effectiveness (AME) test). AME testing was used to determine the ability of a preservative to reduce or eliminate microbes that may be introduced into the vial following product withdrawal. […] Briefly, the AME test comprises the EPA, EPB and USP criteria, which consist of inoculating 10^5-10^6 CFU/mL microorganisms (e.g., bacteria and fungi) per container at time zero, and evaluating the log reduction over time (Meyer et al., supra).
Thimerosal was also included as a reference.
All samples contained 562.5 mcg/mL MAA, 0.32 M NaCl, 10 mM His, 0.01% polysorbate-80 (PS-80), pH 6.2. Formulations containing chlorobutanol and propylparaben were tested with and without the addition of 120 mcg/mL ISCOMATRIX®.
Preservatives were added to octavalent HPV formulations comprising 8 types of HPV VLPs, as described in EXAMPLE 1, and were stored for one week at 2-8° C. prior to AME testing.
Several HPV vaccine formulations with various dose and combinations of preservatives, in the presence or absence of IMX adjuvant, were tested.
Each type of HPV VLP aqueous bulk was absorbed on MAA separately with a protein-to-adjuvant ratio of 0.71 to form the monovalent vaccines in 0.32 M NaCl, 10 mM Histidine (pH 6.2), 0.01% (w/v) PS-80. […]

HPV18 VLPs = HPV18 VLPs (Human papillomavirus type 18, UniProt P06794); assay type: physicochemical, HPV; conditions: data not shown
Method: Differential Scanning Calorimetry (DSC) was used to evaluate the impact of preservatives on protein structural and thermal stability. The analysis for antigen thermal stability was determined using a VP-Capillary DSC Platform (MicroCal, LLC, Northampton, Mass.). A detailed description of the conditions utilized is disclosed in Ionescu et al. (2007) (J. Pharm. Sci. 97(4): 1414-1426 (2008)).
The DSC evaluation was carried out in the presence of various preservatives with varied concentrations.

HPV Type 18 VLPs = HPV Type 18 VLPs (Human papillomavirus type 18, UniProt P06794); assay type: binding; conditions: HPV18 VLPs, 2 months at 2-8° C., n=2, Biacore
HPV Type 18 VLPs, sequence (P06794 whole entry): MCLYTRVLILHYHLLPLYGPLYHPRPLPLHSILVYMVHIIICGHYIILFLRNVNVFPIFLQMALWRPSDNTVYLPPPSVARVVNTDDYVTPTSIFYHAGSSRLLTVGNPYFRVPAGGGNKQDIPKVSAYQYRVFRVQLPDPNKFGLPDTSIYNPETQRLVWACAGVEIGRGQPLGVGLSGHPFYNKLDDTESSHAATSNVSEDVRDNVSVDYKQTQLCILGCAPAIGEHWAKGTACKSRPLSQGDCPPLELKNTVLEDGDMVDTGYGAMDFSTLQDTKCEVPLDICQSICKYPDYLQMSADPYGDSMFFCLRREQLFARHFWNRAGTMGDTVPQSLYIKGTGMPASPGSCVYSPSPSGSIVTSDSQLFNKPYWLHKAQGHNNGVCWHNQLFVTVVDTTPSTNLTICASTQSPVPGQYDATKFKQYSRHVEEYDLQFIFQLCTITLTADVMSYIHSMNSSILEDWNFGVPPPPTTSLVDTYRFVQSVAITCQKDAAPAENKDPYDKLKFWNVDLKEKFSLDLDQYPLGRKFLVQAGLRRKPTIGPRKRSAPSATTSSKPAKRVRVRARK
Method: The in vitro antigenicity of HPV vaccine formulations comprising HPV18 VLPs and different preservatives was evaluated using a neutralization antibody binding assay (Biacore, Surface Plasmon Resonance). The analysis for antigen bioactivity was determined using the Biacore 2000 (VPR 332) and Biacore 3000 (VPR 696) (Biacore, Inc., Piscataway, N.J.).
Samples were incubated for 2 months at 2-8° C. prior to sample treatment by aluminum dissolution, followed by the final Biacore analysis.

HPV18 VLPs, sequence (P06794 whole entry): as above

SMILES	AME test criteria passed (USP, EP-B, EP-A) [1]	impact on the thermal stability of HPV type 18 (DSC) (HPV18 VLPs)	average relative in vitro antigenicity (HPV Type 18 VLPs) [%]
OCCOc1ccccc1 [2-phenoxyethanol]	did not pass EP-B or EP-A	–	–
C[CH2][Hg][S]c1ccccc1C(=O)[O-].[Na+] [thimerosal]	–	greatest impact	80
